Results reported in article PMC5896778 (Developmental cell, 2018).

Key:
[1] = test system: MT formation at Golgi fragments in HCMV-infected NHDFs; assay: Nocodazole washout assay, MT nucleation; type: cell-based, human; details: 10µM nocodazole for 8h, mock or AD169-infected NHDFs, 3d
[2] = test system: CDK activity and EB3 abundance in HCMV AD169-infected NHDFs; details: 3 µM

Row | SMILES | effect on MTs, Golgi and AC structures [1] | effect on IE2 expression ([2]; AD169 MOI 3, WB) | CDK substrate phosphorylation and increases in EB3 abundance by 3d.p.i. ([2]; daily inhibitor replenishment, AD169 MOI 3, 3d.p.i.) | effect on HCMV-induced CDK activation (pan-CDK1 substrate antibody) ([2]; replaced every 24h, AD169 MOI 3, WB) | effect on HCMV-induced increases in EB3 ([2]; replaced every 24h, AD169 MOI 3, WB, 1 and 2 d.p.i.)
1 | COC(=O)Nc1nc2ccc(C(=O)c3cccs3)cc2[nH]1 [nocodazole] | depolymerized MTs and dispersed Golgi and AC structures |  |  |  | 
2 | Nc1nc(Nc2ccc(S(N)(=O)=O)cc2)nn1C(=O)c1c(F)cccc1F [JNJ-7706621] |  | modestly affected IE2 expression | insensitive | suppressed HCMV-induced CDK activation | prevented increases in EB3 at 1 and 2 d.p.i.
